Usually inhibition stands for the relative decrease from the control value, in per cent. Higher therefore signals a response far below the control. For orientation: LD50 means the dose at which mortality reaches 50%. Read a low LD50 as a more toxic substance.

The source made the active and inactive calls. No cut-off for these calls is given here.

Series [1] has as its target T1, Amine oxidase [flavin-containing] B (Homo sapiens, UniProt P27338).
T1 sequence (P27338 whole entry): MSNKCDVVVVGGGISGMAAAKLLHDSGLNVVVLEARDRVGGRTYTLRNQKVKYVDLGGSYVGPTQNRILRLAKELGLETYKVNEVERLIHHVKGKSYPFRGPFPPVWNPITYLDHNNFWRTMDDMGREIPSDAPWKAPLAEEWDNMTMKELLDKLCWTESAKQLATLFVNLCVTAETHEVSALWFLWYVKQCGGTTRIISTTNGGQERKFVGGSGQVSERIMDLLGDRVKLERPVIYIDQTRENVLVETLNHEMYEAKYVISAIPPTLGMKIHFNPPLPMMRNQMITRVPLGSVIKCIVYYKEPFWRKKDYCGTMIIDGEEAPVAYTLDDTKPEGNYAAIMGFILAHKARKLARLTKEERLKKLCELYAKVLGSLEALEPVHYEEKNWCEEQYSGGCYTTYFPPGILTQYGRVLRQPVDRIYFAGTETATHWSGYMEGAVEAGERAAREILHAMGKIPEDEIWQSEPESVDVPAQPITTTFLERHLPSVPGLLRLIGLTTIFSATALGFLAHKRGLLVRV
The series is described as follows: Activity of human liver MAOB assessed as specific activity at 1 mM. As to conditions: 1000 µM.

The species entered for the next series is Mus musculus. The series is described as follows: Analgesic activity in mouse by hot plate test. It counts as functional, organism-based.
Series [2] concerns the target T2, MAO-B (amine oxidase [flavin-containing] B) (Homo sapiens, UniProt P27338).
T2 sequence (P27338 whole entry): T1 sequence (P27338 whole entry)
Description: Inhibition of human liver MAOB at 1 mM relative to MPTP.

Series [3] is described as follows: Toxicity in intramuscular dosed mouse. It counts as organism-based. Particulars: in vivo, im.
The species entered for the next series is Rattus norvegicus. Description: Displacement of [3H]colchicine from rat brain tubulin at 25 uM. A general note: Loss of bound radioactivity is the signal in a displacement assay; it reports binding, not function.

Turning to `CCCN1CC=C(c2ccccc2)CC1`, the Activity in series [1] is below 5 nmol/min/mg.
The same measure, in the same setting: in the case of `CC(C)N1CC=C(c2ccccc2)CC1` it was below 5 nmol/min/mg.
As to `CN1CC[C@]2(C)c3cc(O)ccc3N(C)[C@H]12`, the outcome in the series listed under Mus musculus was inactive.
As for `CN1CC=CC(c2ccccc2)C1` (centres undefined), the Activity in series [1] is listed as below 5 nmol/min/mg.
`CC1CN(C)CC=C1c1ccccc1` (centres undefined): the Activity in series [1] came to 11.4 nmol/min/mg. In series [2], this compound gave an inhibition at 1000 µM of 13.4%.
On the same counts, the results for `CC1=C(c2ccccc2)CCN(C)C1` are 5.3 nmol/min/mg and 6.2%.
For the compound `CN1CC=C(c2ccc(Cl)cc2)CC1`, in series [1], the Activity is recorded as 5.8 nmol/min/mg. Besides, in series [2], 1000 µM produced 6.8% inhibition.
Turning to `C1=C(c2ccccc2)CCN(Cc2ccccc2)C1`, in series [1], the Activity is below 5 nmol/min/mg.
On the same count and under the same terms, the same measure for `CN1CCC=C(c2ccccc2)C1`: below 5 nmol/min/mg; for `C1=C(c2ccccc2)CCN(CC2CC2)C1`: below 5 nmol/min/mg.
Turning to `CN1CC[C@@]2(C)c3cc(O)ccc3N(C)[C@@H]12`, the outcome in the series filed under Mus musculus was Active.
For the compound `CN1CC=C(c2ccccc2)CC1`, the Activity in series [1] was found to be 85.2 nmol/min/mg. Besides, the inhibition at 1000 µM in series [2] turned out to be 100%.
Regarding `C1=C(c2ccccc2)CCNC1`, the Activity in series [1] is on record as 58.6 nmol/min/mg. The compound also returned an inhibition at 1000 µM in series [2] of 68.8%.
As to `COc1cc2c(c(OC)c1OC)-c1ccc(OC)c(=O)cc1[C@@H](NC(C)=O)CC2` [COLCHICINE], in series [3], the LD50 came to 3 µmol/kg.
`C/C=C/C(=O)N[C@H]1CCc2cc(OC)c(OC)c(OC)c2-c2ccc(OC)c(=O)cc21`: in the series listed under Rattus norvegicus, the inhibition was determined as 67%. The same compound showed an LD50 in series [3] of 3.4 µmol/kg.
`CN1CC=C(c2ccc(O)cc2)CC1`: the Activity in series [1] is recorded as below 5 nmol/min/mg.
Compound `C=CC(=O)N[C@H]1CCc2cc(OC)c(OC)c(OC)c2-c2ccc(OC)c(=O)cc21` had an inhibition in the series filed under Rattus norvegicus of 82%. The LD50 in series [3] was determined as 17.4 µmol/kg.
For the compound `CCN1CC=C(c2ccccc2)CC1`, the Activity in series [1] is 8.82 nmol/min/mg. Further, the inhibition at 1000 µM in series [2] is 10.4%.
For the compound `CCCCN1CC=C(c2ccccc2)CC1`, the Activity in series [1] is on record as below 5 nmol/min/mg.
Consider `CCCC(=O)N[C@H]1CCc2cc(OC)c(OC)c(OC)c2-c2ccc(OC)c(=O)cc21`, for which the inhibition in the series listed under Rattus norvegicus (tested as the 2H-labelled form) was determined as 79%.
For `C=CCN1CC=C(c2ccccc2)CC1`, the Activity in series [1] is below 5 nmol/min/mg.
